Here are results for 15 molecules from patent US11053235B2, “Substituted 1,4-dihydropyrimidines for the treatment of HBV infection or HBV-induced diseases” (Janssen Sciences Ireland Unlimited Company, priority 2018, dated 2021).

Data set [1] concerns HBV. The experiment in a line: Anti-viral assay in HepG2.2.15 cells: HBV inhibitory activity (HBV DNA in culture medium by q-PCR). It counts as cell-based. To be noted: Hepatitis B virus, HepG2.2.15, 144 h, HepG2.2.15 cells, 6 days treatment, HBV DNA in culture medium by q-PCR, highest concentration 10 uM; read-out: EC50. An outline of the steps: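 HBV DNA released into the medium was measured by q-PCR after 6-day compound exposure of HepG2.2.15 cells (40,000/well, 2% FBS, one mid-course medium change). Eight 3-fold dilutions, highest 10 uM; EC50 derived by curve fitting.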

A short description of data set [2]: Cytotoxicity determination in HepG2.2.15 cells (CCK-8). It counts as cell-based. The note with it: human, 6 days treatment, CCK-8, highest concentration 100 uM. The gist of the method:
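CC50 derived from CCK-8 absorbance (450 nm, 630 nm reference) after 2.5 h incubation at 37 °C. Before that, HepG2.2.15 cells (5,000/well, 2% FBS) received an 8-point, 3-fold compound series topping at 100 uM for 6 days, with one mid-treatment medium change.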

SMILES strings stand for the structures. Where only a bound is given, the exact number is not on record here.

For the molecule `CCOC(=O)C1=C(C2CCN(c3nccc(C(=O)O)c3F)CC2)NC(c2nccs2)=NC1c1ccc(F)c(F)c1Cl` (single isomer, unassigned) [II-40-B, 2-(4-(6-(2-Chloro-3,4-difluorophenyl)-5-(ethoxycarbonyl)-2-(thiazol-2-yl)-3,6-dihydropyrimidin-4-yl)piperidin-1-yl)-3-fluoroisonicotinic Acid], the EC50 (in general, the midpoint of the concentration-response curve) in data set [1] is 0.0091 µM. Further, half-maximal cytotoxicity in data set [2] (CC50 at 6 days) was put at 8.37 µM.
On the same counts, the results for `CCOC(=O)C1=C(C2CCN(c3nc(C)c(C(=O)O)c(C)n3)CC2)NC(c2nccs2)=NC1c1ccc(F)c(F)c1Cl` (single isomer, unassigned) [II-71-B, 2-(4-(6-(2-chloro-3,4-difluorophenyl)-5-(ethoxycarbonyl)-2-(thiazol-2-yl)-3,6-dihydropyrimidin-4-yl)piperidin-1-yl)-4,6-dimethylpyrimidine-5-carboxylic Acid] are 0.02 µM and 6.33 µM.
Turning to `COC(=O)C1=C(C2CCN(c3cc(C(=O)O)c(C)cn3)CC2)NC(c2nccs2)=NC1c1ccc(F)cc1Cl` (single isomer, unassigned) [II-89-B, 2-(4-(6-(2-Chloro-4-fluorophenyl)-5-(methoxycarbonyl)-2-(thiazol-2-yl)-3,6-dihydropyrimidin-4-yl)piperidin-1-yl)-5-methylisonicotinic Acid], the EC50 in data set [1] stood at 0.009 µM. Besides, half-maximal cytotoxicity in data set [2] (CC50 at 6 days) was put at 20.3 µM.
Take `CCOC(=O)C1=C([C@H]2CC[C@H](c3cnn(CCC(=O)O)c3)CC2)NC(c2nccs2)=NC1c1ccc(F)c(F)c1Cl` (single isomer, unassigned) [Compound I-32-B, 3-(4-((trans)-4-(6-(2-Chloro-3,4-difluorophenyl)-5-(ethoxycarbonyl)-2-(thiazol-2-yl)-3,6-dihydropyrimidin-4-yl)cyclohexyl)-1H-pyrazol-1-yl)propanoic Acid]: the EC50 in data set [1] was under 0.0046 µM. Besides, the CC50 – broadly, the concentration at which the toxic effect on the cells reaches its halfway point – at 6 days in data set [2] was 5.81 µM.
Consider `CCOC(=O)C1=C(C2CCN(c3ncc(OCC)c(C(=O)O)n3)CC2)NC(c2nccs2)=NC1c1ccc(F)c(F)c1Cl` (single isomer, unassigned) [II-96-B, 2-(4-(6-(2-chloro-3,4-difluorophenyl)-5-(ethoxycarbonyl)-2-(thiazol-2-yl)-3,6-dihydropyrimidin-4-yl)piperidin-1-yl)-5-ethoxypyrimidine-4-carboxylic Acid], for which the EC50 in data set [1] was 0.0051 µM. In addition, the CC50 at 6 days in data set [2] was determined as 16.3 µM.
As for `CCOC(=O)C1=C(C2CN(c3nc(C(=O)O)co3)C2)NC(c2nccs2)=NC1c1ccc(F)c(F)c1Cl` (single isomer, unassigned) [II-86-B, 2-(3-(6-(2-Chloro-3,4-difluorophenyl)-5-(ethoxycarbonyl)-2-(thiazol-2-yl)-3,6-dihydropyrimidin-4-yl)azetidin-1-yl)oxazole-4-carboxylic Acid], the EC50 in data set [1] amounted to 2.87 µM. The CC50 at 6 days in data set [2] was 9.4 µM.
Take `CCOC(=O)C1=C([C@H]2CC[C@H](c3ncc(C(=O)O)cn3)CC2)NC(c2nccs2)=NC1c1ccc(F)c(F)c1Cl` (single isomer, unassigned) [Compound I-40-A, (trans)-2-(4-(6-(2-Chloro-3,4-difluorophenyl)-5-(ethoxycarbonyl)-2-(thiazol-2-yl)-3,6-dihydropyrimidin-4-yl)cyclohexyl)pyrimidine-5-carboxylic Acid]: the half-maximal effective concentration (EC50) in data set [1] is under 0.0046 µM. This molecule had a CC50 at 6 days in data set [2] of 4.43 µM.
Regarding `CCOC(=O)C1=C(C2CCN(c3nccc(C(=O)O)n3)CC2)NC(c2nccs2)=NC1c1ccc(F)c(F)c1Cl` (single isomer, unassigned) [II-65-B, 2-(4-(6-(2-chloro-3,4-difluorophenyl)-5-(ethoxycarbonyl)-2-(thiazol-2-yl)-3,6-dihydropyrimidin-4-yl)piperidin-1-yl)pyrimidine-4-carboxylic Acid], the EC50 in data set [1] came out at 0.0046 µM. In data set [2], this molecule returned a CC50 at 6 days of 6.64 µM.
Turning to `CCOC(=O)C1=C(C2CCN(c3cc(C(=O)O)ncn3)CC2)NC(c2nccs2)=NC1c1ccc(F)c(F)c1Cl` (single isomer, unassigned) [II-54-B, 6-(4-(6-(2-Chloro-3,4-difluorophenyl)-5-(ethoxycarbonyl)-2-(thiazol-2-yl)-3,6-dihydropyrimidin-4-yl)piperidin-1-yl)pyrimidine-4-carboxylic Acid], the EC50 in data set [1] worked out at 0.019 µM. In data set [2], half-maximal cytotoxicity (CC50 at 6 days) was put at 10.3 µM.
On the same counts, the results for `COC(=O)C1=C(C2CCN(c3ncc(C(=O)O)s3)CC2)NC(c2nccs2)=NC1c1cccc(F)c1Cl` (single isomer, unassigned) [II-10-B, 2-(4-(6-(2-Chloro-3-fluorophenyl)-5-(methoxycarbonyl)-2-(thiazol-2-yl)-3,6-dihydropyrimidin-4-yl)piperidin-1-yl)thiazole-5-carboxylic Acid] are 0.0092 µM and 17.2 µM.
Regarding `COC(=O)C1=C(C2CCN(c3ncc(C(=O)O)c(C)n3)CC2)NC(c2nccs2)=NC1c1ccc(F)cc1Cl` (single isomer, unassigned) [II-16-B, 2-(4-(6-(2-Chloro-4-fluorophenyl)-5-(methoxycarbonyl)-2-(thiazol-2-yl)-3,6-dihydropyrimidin-4-yl)piperidin-1-yl)-4-methylpyrimidine-5-carboxylic Acid], the EC50 in data set [1] was found to be 0.0069 µM. For the same molecule, the CC50 at 6 days in data set [2] is 7.48 µM.
In the case of `CCOC(=O)C1=C(C2CCN(c3ncc(C(=O)O)c(C)n3)CC2)NC(c2nccs2)=NC1c1ccc(F)c(F)c1Cl` (single isomer, unassigned) [II-73-B, 2-(4-(6-(2-Chloro-3,4-difluorophenyl)-5-(ethoxycarbonyl)-2-(thiazol-2-yl)-3,6-dihydropyrimidin-4-yl)piperidin-1-yl)-4-methylpyrimidine-5-carboxylic Acid], the EC50 in data set [1] was found to be 0.025 µM. In data set [2], this molecule displayed a CC50 at 6 days of 5.92 µM.
Regarding `CCOC(=O)C1=C(C2CCN(c3ccc(C(=O)O)cn3)CC2)NC(c2nccs2)=NC1c1ccc(F)c(F)c1Cl` (single isomer, unassigned) [II-43-B, 6-(4-(6-(2-Chloro-3,4-difluorophenyl)-5-(ethoxycarbonyl)-2-(thiazol-2-yl)-3,6-dihydropyrimidin-4-yl)piperidin-1-yl)nicotinic Acid], in data set [1], the EC50 was determined as 0.016 µM. Moreover, half-maximal cytotoxicity in data set [2] (CC50 at 6 days) was put at 11.4 µM.
Consider `CCOC(=O)C1=C(C2CCN(c3ncc(C(=O)O)s3)CC2)NC(c2nccs2)=NC1c1ccc(F)c(F)c1Cl` (single isomer, unassigned) [II-78-B, 2-(4-(6-(2-Chloro-3,4-difluorophenyl)-5-(ethoxycarbonyl)-2-(thiazol-2-yl)-3,6-dihydropyrimidin-4-yl)piperidin-1-yl)thiazole-5-carboxylic Acid], for which, in data set [1], the EC50 is under 0.0046 µM. In data set [2], the cytotoxic concentration (CC50) at 6 days was determined as 12.1 µM.
The like results for `COC(=O)C1=C([C@H]2CC[C@H](c3nc(C(=O)O)co3)CC2)NC(c2nccs2)=NC1c1cccc(F)c1Cl` (single isomer, unassigned) [Compound I-5-B, (trans)-2-(4-(6-(2-Chloro-3-fluorophenyl)-5-(methoxycarbonyl)-2-(thiazol-2-yl)-3,6-dihydropyrimidin-4-yl)cyclohexyl)oxazole-4-carboxylic Acid] were, in that order, 0.06 µM and 19.3 µM.
